Laboratory results reported in publication PMC9394386 (Cancer Discovery, 2022).
Several values for one entry are separate records, joined by “and”; a condition that tells them apart may be missing. Equal entries are not always repeated. Positions of bridges follow the written chain, without caps; N, C: chain ends. Non-standard residues stand in square brackets, D forms with d. Residues, ends and D or L forms follow the SMILES beside them. NMeF = CN[C@@H](Cc1ccccc1)C(=O)O; NMeNle = CCCC[C@H](NC)C(=O)O; Sar = CNCC(=O)O

What was measured:
PD-L1 [1] = target: T1, PD-L1 (Homo sapiens, UniProt Q9NZQ7); experiment: PD-L1/PD-1 HTRF binding assay, human PD-L1
Target sequence in this assay (Q9NZQ7 19-238 limits assumed): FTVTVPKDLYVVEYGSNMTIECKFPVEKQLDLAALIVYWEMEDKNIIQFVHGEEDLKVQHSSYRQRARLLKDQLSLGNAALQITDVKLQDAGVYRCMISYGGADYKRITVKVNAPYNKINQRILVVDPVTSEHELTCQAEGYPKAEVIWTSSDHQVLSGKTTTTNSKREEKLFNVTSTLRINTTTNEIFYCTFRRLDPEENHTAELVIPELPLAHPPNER

cynomolgus PD-L1 = cynomolgus PD-L1 (Macaca fascicularis, UniProt G7PSE7); experiment: PD-L1/PD-1 HTRF binding assay, cynomolgus PD-L1
Sequence of cynomolgus PD-L1 (G7PSE7 19-239): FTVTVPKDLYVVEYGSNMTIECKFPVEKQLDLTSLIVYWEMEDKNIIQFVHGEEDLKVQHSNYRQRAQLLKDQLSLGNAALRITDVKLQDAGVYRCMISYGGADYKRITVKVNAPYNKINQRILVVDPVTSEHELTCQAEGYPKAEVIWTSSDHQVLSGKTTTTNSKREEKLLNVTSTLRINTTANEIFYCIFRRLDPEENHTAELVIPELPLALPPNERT
Sequence of cynomolgus PD-L1 (Q15116 25-167 partner): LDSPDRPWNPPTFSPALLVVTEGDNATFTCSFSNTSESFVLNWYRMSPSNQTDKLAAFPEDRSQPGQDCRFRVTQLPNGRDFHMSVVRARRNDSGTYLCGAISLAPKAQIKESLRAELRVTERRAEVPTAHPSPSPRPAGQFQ

rat PD-L1 = rat PD-L1 (Rattus norvegicus, UniProt D4AE25); experiment: PD-L1/PD-1 HTRF binding assay, rat PD-L1; details: human PD-1
Sequence of rat PD-L1 (D4AE25 19-238): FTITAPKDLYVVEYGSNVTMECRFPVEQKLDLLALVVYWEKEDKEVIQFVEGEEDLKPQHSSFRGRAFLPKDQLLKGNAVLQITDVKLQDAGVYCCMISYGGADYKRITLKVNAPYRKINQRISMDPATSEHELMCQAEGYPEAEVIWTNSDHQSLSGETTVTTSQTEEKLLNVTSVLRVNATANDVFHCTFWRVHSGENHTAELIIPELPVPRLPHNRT
Sequence of rat PD-L1 (Q15116 25-167 partner): as the sequence (Q15116 25-167 partner) above

mouse PD-L1 = mouse PD-L1 (Mus musculus, UniProt Q9EP73); experiment: PD-L1/PD-1 HTRF binding assay, mouse PD-L1
Sequence of mouse PD-L1 (Q9EP73 19-238 limits assumed): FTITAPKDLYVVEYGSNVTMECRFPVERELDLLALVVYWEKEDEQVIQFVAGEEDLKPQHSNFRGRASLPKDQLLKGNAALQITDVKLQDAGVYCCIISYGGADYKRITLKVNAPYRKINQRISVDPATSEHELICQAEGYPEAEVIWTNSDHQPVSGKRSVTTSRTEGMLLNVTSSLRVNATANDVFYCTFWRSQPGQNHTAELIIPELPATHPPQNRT

human PD-L2 = human PD-L2 (Homo sapiens, UniProt Q9BQ51); experiment: PD-L2/PD-1 HTRF binding assay
Sequence of human PD-L2 (Q9BQ51 20-219 limits assumed): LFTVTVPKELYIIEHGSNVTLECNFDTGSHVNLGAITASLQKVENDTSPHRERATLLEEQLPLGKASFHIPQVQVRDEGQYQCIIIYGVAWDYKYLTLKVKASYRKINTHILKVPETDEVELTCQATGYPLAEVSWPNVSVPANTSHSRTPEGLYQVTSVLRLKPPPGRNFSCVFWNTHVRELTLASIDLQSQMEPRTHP

[2] = system: PD-1–mediated SHP recruitment; experiment: PD-1–SHP reporter assay; type: cell-based; details: read-out: IC50, SHP recruitment
NFAT signaling = experiment: NFAT reporter assay; type: cell-based; details: read-out: NFAT activation (IC50 in Table 1, EC50 in text)
PD-L1 on CHO PD-L1 cells [3] = target: T2, PD-L1 on CHO PD-L1 cells (Homo sapiens, UniProt Q9NZQ7); experiment: Cell-based PD-1 binding assay; details: concentrations ≥160 nmol/L
T2 sequence (Q9NZQ7 19-290): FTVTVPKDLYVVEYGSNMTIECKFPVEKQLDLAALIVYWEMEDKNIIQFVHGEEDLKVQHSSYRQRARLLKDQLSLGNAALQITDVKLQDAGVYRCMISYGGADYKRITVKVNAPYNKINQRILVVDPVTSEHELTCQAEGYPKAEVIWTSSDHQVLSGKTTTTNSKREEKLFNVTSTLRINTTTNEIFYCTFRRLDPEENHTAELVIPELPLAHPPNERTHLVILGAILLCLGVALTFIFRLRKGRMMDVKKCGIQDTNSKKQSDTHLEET

PD-L1 [4] = target: T1, PD-L1; experiment: Flow cytometry competition with anti–PD-L1 mAbs on CHO PD-L1 cells; type: cell-based; details: 1 µmol/L
Target sequence in this assay (Q9NZQ7 19-290): as above

[5] = target: Human PD-L1-FLAG tag protein (Homo sapiens, UniProt Q9NZQ7); experiment: SPR antibody competition; type: binding; details: 1 µM
Sequence of Human PD-L1-FLAG tag protein (Q9NZQ7 19-290): as above

PD-L1 (aa 19-239) [6] = target: T3, PD-L1 (aa 19-239) (Homo sapiens, UniProt Q9NZQ7); experiment: SEC-MALS of PD-L1 complexes; type: binding; details: 15 µmol/L PD-L1, 100 µmol/L compound
T3 sequence (Q9NZQ7 19-239): as the sequence (G7PSE7 19-239) above, with T33A, S34A, N62S, Q68R, R82Q, L173F, A185T, I192T, L215H counted along it

PD-L1 (aa 19-239) [7] = target: T3, PD-L1 (aa 19-239); experiment: Isothermal titration calorimetry; type: binding
PD-L1 on CHO PD-L1 cells [8] = target: T2, PD-L1 on CHO PD-L1 cells; experiment: Unoccupied and total PD-L1 by flow cytometry; type: cell-based; details: 18 hours
PD-L1 on CHO PD-L1 cells [9] = target: T2, PD-L1 on CHO PD-L1 cells; experiment: Live-cell imaging of PD-L1 internalization; type: cell-based; details: 1 µmol/L
PD-L1 in CHO PD-L1 cells [10] = target: T4, PD-L1 in CHO PD-L1 cells (Homo sapiens, UniProt Q9NZQ7); experiment: Total PD-L1 by Western blot; type: cell-based; details: 0.2 or 1 µM
T4 sequence (Q9NZQ7 19-290): as the sequence (Q9NZQ7 19-290) above

PD-L1 in CHO PD-L1 cells [11] = target: T4, PD-L1 in CHO PD-L1 cells; experiment: Confocal microscopy of PD-L1 internalization; type: cell-based; details: 18 hours, INCB086550 1 µmol/L, atezolizumab 10 µg/mL
[12] = target: human PD-L1 on MBT2 clones (Homo sapiens, UniProt Q9NZQ7); experiment: Isogenic MBT2 cell line PD-L1 internalization; type: cell-based; details: EC50, PD-L1 internalization (MIH1), 16 hours
Sequence of human PD-L1 on MBT2 clones (Q9NZQ7 19-127 limits assumed): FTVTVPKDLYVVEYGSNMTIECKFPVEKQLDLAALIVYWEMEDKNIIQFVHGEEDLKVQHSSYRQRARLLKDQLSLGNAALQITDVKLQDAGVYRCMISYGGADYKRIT

PD-L1 on monocytes [13] = target: T5, PD-L1 on monocytes (Homo sapiens, UniProt Q9NZQ7); experiment: Unoccupied PD-L1 on monocytes in human whole blood; type: cell-based
T5 sequence (Q9NZQ7 19-290): as the sequence (Q9NZQ7 19-290) above

PD-L1 on monocytes [14] = target: PD-L1 on monocytes (Macaca fascicularis, UniProt G7PSE7); experiment: Unoccupied PD-L1 on monocytes in cynomolgus whole blood; type: cell-based, cynomolgus monkey; details: read-out: EC50, reducing unoccupied cell-surface PD-L1 on monocytes
Sequence of PD-L1 on monocytes (Macaca fascicularis, UniProt G7PSE7) (G7PSE7 19-290): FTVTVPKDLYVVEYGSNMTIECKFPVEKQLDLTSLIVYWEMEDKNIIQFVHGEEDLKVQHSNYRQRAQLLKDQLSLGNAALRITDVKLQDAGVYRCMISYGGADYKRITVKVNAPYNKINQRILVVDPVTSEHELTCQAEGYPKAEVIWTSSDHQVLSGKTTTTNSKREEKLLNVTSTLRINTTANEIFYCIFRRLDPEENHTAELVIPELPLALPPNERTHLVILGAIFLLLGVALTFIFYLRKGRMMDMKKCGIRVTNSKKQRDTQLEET

[15] = system: human T cells with CHO PD-L1 cells; experiment: Artificial antigen-presenting cell system, IFNγ secretion; type: cell-based; details: for Maximal levels of IFNγ, induction: atezolizumab at 10 nmol/L
MC38 huPD-L1 tumors [16] = experiment: MC38 huPD-L1 tumor efficacy in C57BL/6 mice; type: in vivo, mouse
MC38 huPD-L1 tumors [17] = experiment: MC38 huPD-L1 tumor efficacy in NSG mice; type: in vivo, mouse; details: NSG mice, 2, 20, 200 mg/kg b.i.d.
[18] = target: PD-L1 on MC38 huPD-L1 tumors (Homo sapiens, UniProt Q9NZQ7); experiment: PD-L1 levels on MC38 huPD-L1 tumors; type: in vivo, mouse; details: 200 mg/kg, clone MIH1
Sequence of PD-L1 on MC38 huPD-L1 tumors (Q9NZQ7 19-290): as the sequence (Q9NZQ7 19-290) above

MDA-MB-231 tumors = experiment: MDA-MB-231 tumor efficacy in NSG mice; type: in vivo, mouse; details: 20 mg/kg
[19] = 28-day toxicology study in rats; type: in vivo, rat
[20] = 28-day toxicology study in monkeys; type: in vivo, monkey
Tolerability in mice = details: mouse, in vivo
PD-L1 on monocytes [21] = target: T5, PD-L1 on monocytes; experiment: Available PD-L1 on monocytes from clinical study patients; type: in vivo
[22] = system: plasma CXCL9, CXCL10, IFNγ, PD-L1; experiment: Proteins in peripheral blood of phase I patients; type: in vivo, human
target lesion = experiment: Clinical activity in phase I study; type: in vivo, human; details: patient, week 24
[23] = all tested doses up to 1,000 mg/kg

Compound: Cc1c(Nc2nccc3cc(CN4CC[C@@H](O)C4)cnc23)cccc1-c1cccc(-c2nc3cc(CN4CC[C@@H](C(=O)O)C4)cc(C#N)c3o2)c1C [INCB086550]
- IC50 (PD-L1 [1]): 3.1 ± 1.2 nM
- IC50 (cynomolgus PD-L1): 4.9 ± 1.6 nM
- IC50 (rat PD-L1): 1.9 nM and < 1.5 nM
- IC50 (mouse PD-L1): > 10000 nM
- Binding to mouse PD-L1 (mouse PD-L1; HTRF): not detected
- IC50 (human PD-L2): > 10000 nM
- Inhibition of binding of PD-L2 to human PD-1 (human PD-L2; concentrations up to 10 µmol/L): not inhibited
- IC50 [2]: 6.3 ± 2.5 nM
- EC50 (NFAT signaling): 21.4 ± 8.4 nM
- Inhibition of PD-1/PE binding (PD-L1 on CHO PD-L1 cells [3]): > 90%
- Binding of atezolizumab and durvalumab to PD-L1 after pretreatment (PD-L1 [4]): blocked binding
- Binding of atezolizumab and durvalumab to PD-L1 (SPR) [5]: inhibited binding
- SEC-MALS peak of PD-L1 in presence of compound (PD-L1 (aa 19-239) [6]): ~69 kDa
- Binding stoichiometry n (ITC) (PD-L1 (aa 19-239) [7]): 0.6
- Epitope occupancy of PD-L1, clone MIH1 (PD-L1 on CHO PD-L1 cells [8]): > 90%
- Reduction of PD-L1 staining, clone 28-8 (total cell-surface PD-L1) (PD-L1 on CHO PD-L1 cells [8]): approximately 70%
- Time to maximal PD-L1 internalization (PD-L1 on CHO PD-L1 cells [9]): ~4 h
- Change in total PD-L1 in cells (PD-L1 in CHO PD-L1 cells [10]): decrease of overall PD-L1
- PD-L1 internalization, clone 28-8 staining (PD-L1 in CHO PD-L1 cells [11]): internalization of PD-L1 and increased cytoplasmic staining
- EC50 ([12]; MBT2-PD-L1 high): 0.1 nM
- EC50 ([12]; MBT2-PD-L1 low): 3.7 nM
- EC50 ([12]; MBT2-PD-L1 medium): 0.4 nM
- EC50 (PD-L1 on monocytes [13]): 88 nM
- IC90 (PD-L1 on monocytes [13]; read-out: whole blood IC90): 792 nM
- EC50 (PD-L1 on monocytes [14]): 4.5 nM
- Maximal levels of IFNγ, induction [15]: 425%
- Toxicity to cells ([15]; cell-based assays): No overt toxicity
- tumor growth inhibition (TGI) (MC38 huPD-L1 tumors [16]; 2 mg/kg p.o. b.i.d., day 16): 32%
- tumor growth inhibition (TGI) (MC38 huPD-L1 tumors [16]; 20 mg/kg p.o. b.i.d., day 16): 66%
- tumor growth inhibition (TGI) (MC38 huPD-L1 tumors [16]; 200 mg/kg p.o. b.i.d., day 16): 69%
- Antitumor activity in immunodeficient mice (MC38 huPD-L1 tumors [17]): abolished
- Maximum reduction of occupied PD-L1 [18]: > 90%
- Antitumor activity in immunodeficient mice (MDA-MB-231 tumors): abolished
- Dose at which associated events were observed (minimal to mild, nonadverse) [19]: 1,000 mg/kg/day
- Tolerability [19, 23]: well tolerated
- Tolerability [20, 23]: well tolerated
- Doses with emesis ([20]; no evidence of target organ toxicity): ≥ 200 mg/kg/day
- Adverse effects in mice (Tolerability in mice): no adverse effects
- Dose reaching maximum inhibition of free PD-L1 (PD-L1 on monocytes [21]): 200 mg b.i.d.
- Increase in plasma cell-free PD-L1 vs baseline ([22]; all dose levels, cycle 2 day 1): 1.4 fold
- Increase in plasma IFNγ vs baseline ([22]; cycle 1 day 8): 3.8 fold
- Increase in plasma CXCL9 vs baseline ([22]; cycle 2 day 1): 1.8 fold
- Increase in plasma CXCL10 vs baseline ([22]; cycle 2 day 1): 1.4 fold
- Preliminary clinical activity (target lesion): decrease in target lesion volume

Compound: atezolizumab: clinical anti–PD-L1 monoclonal antibody [reference compound]
- PD-L1 internalization, clone 28-8 staining (PD-L1 in CHO PD-L1 cells [11]): only minor levels of PD-L1 internalization
- Maximal levels of IFNγ, induction [15]: 433%
- tumor growth inhibition (TGI) (MC38 huPD-L1 tumors [16]; 5 mg/kg intraperitoneally every 5 days): 73%

Compound: CCCC[C@H]1C(=O)N(C)CC(=O)N[C@@H](CC(=O)O)C(=O)N[C@@H](C(C)C)C(=O)N(C)[C@@H](Cc2ccccc2)C(=O)N[C@@H](Cc2ccc(O)cc2)C(=O)N(C)CC(=O)N[C@@H](Cc2c[nH]c3ccccc23)C(=O)N[C@@H](Cc2ccc(O)cc2)C(=O)N[C@@H](CC(C)C)C(=O)N[C@H](C(=O)NCC(N)=O)CSCC(=O)N[C@@H](Cc2ccccc2)C(=O)N(C)[C@@H](Cc2ccccc2)C(=O)N1C [peptide 71, reference compound] ({CH2CO}-F[NMeF][NMeNle][Sar]DV[NMeF]Y[Sar]WYLCG-NH2; thioether N-13; N-terminus and C-terminus assumed)
- SEC-MALS peak of PD-L1 in presence of compound (PD-L1 (aa 19-239) [6]): approximately 33 kDa
